Assay results from PMC10650415, “Synthesis of Tetracyclic Spirooxindolepyrrolidine-Engrafted Hydantoin Scaffolds: Crystallographic Analysis, Molecular Docking Studies and Evaluation of Their Antimicrobial, Anti-Inflammatory and Analgesic Activities” (Molecules, 2023).
In brackets after ≈: the same amount, converted by molar mass. One block for each compound: values may come before it.

Key:
C. albicans ATCC 90028 = assay: MFC by the agar method; conditions: for MFC/MIC ratio: C. Albicans, ≤ 4 fungicidal, >4 fungistatic; for MFC: Candida albicans, ATCC90028
Procedure: (§2) To further determine the killing efficiency of the synthesized spiropyrrolidines against selected strains, the minimum bactericidal concentration (MBC) and the minimum fungicidal concentration (MFC) were assessed by the agar method [54].

P. aeruginosa ATCC 27950 = assay: MBC by the agar method; conditions: Pseudomonas aeruginosa, ATCC27950
Procedure: as §2

C. kreusei ATCC 6258 = assay: MFC by the agar method; conditions: for MFC/MIC ratio: C. Krusei, ≤ 4 fungicidal, >4 fungistatic; for MFC: Pichia kudriavzevii, ATCC6258
Procedure: as §2

M. luteus NCIMB 8166 = assay: MBC by the agar method; conditions: for MBC: Micrococcus luteus, NCIMB8166; for MBC/MIC ratio: M. luteus, ≤ 4 bactericidal, >4 bacteriostatic
Procedure: as §2

[1] = target: T1, Lipoxygenase-5 (LOX-5) enzyme (Homo sapiens, UniProt P09917); assay: In vitro lipoxygenase (LOX-5) inhibitory assay; type: biochemical; conditions: mean ± SEM, n = 5; read-out: IC50 (LOX-5 inhibition) (converted)
T1 construct: purchased sigma 437996-500U
T1 sequence (P09917 1-674): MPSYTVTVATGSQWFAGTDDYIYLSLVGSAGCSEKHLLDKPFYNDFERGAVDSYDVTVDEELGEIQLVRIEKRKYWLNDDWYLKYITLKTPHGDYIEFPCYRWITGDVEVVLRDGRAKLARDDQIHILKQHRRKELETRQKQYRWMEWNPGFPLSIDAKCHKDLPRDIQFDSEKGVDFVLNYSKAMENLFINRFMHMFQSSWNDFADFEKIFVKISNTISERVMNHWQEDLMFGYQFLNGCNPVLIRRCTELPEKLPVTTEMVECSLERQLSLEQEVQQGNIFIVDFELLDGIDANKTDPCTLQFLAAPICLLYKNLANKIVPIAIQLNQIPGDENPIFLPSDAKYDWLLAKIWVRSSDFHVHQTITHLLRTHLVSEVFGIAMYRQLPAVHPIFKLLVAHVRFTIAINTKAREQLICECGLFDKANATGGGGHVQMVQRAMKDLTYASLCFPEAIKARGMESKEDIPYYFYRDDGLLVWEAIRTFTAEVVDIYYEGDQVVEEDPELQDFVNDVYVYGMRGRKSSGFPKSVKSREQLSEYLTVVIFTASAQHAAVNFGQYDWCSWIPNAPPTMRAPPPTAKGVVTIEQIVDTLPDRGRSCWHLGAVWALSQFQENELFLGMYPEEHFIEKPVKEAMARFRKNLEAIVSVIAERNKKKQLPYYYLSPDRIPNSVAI
Procedure: Lipoxygenases are a family of monomeric proteins that catalyze oxidation of polyunsaturated fatty acids (PUFA) (linoleic, linolenic and arachidonic acid) to produce hydroperoxides. Fractions’ anti-LOX activity was also measured as inhibition of linoleic acid’s peroxidation to hydroperoxylinoleic acid.
To evaluate the prospects of the newly synthesized spirooxindoles as promising drug candidates, we first studied their inhibitory potency against the Lipoxygenase-5 (LOX-5) enzyme.

E. coli ATCC 25922 = assay: MBC by the agar method
Procedure: as §2

S. aureus ATCC 25923 = assay: MBC by the agar method; conditions: for MBC: Staphylococcus aureus, ATCC25923
Procedure: as §2

[2] = test system: Staphylocoocus aureus ATCC 25923; assay: MIC, in vitro micro diffusion method; type: cell-based; conditions: Staphylococcus aureus, ATCC25923; S. aureus ATCC 25923
Excerpt: (§1) In this part, the spiropyrrolidines 4a–m were selected to be screening for their antimicrobial activities, using in vitro micro diffusion method, against multiple bacterial strains (Staphylocoocus aureus ATCC 25923, Escherichia coli ATCC 25922, Pseudomonas aeruginosa ATCC 27950, Micrococcus luteus NCIMB 8166), and two pathogenic reference yeasts namely Candida albicans ATCC 90028 and Candida kreusei ATCC 6258.

[3] = test system: Escherichia coli ATCC 25922; assay: MIC, in vitro micro diffusion method; type: cell-based; conditions: ATCC25922, E. coli ATCC 25922
[4] = test system: Micrococcus luteus NCIMB 8166; assay: MIC, in vitro micro diffusion method; type: cell-based; conditions: NCIMB8166, M. luteus NCIMB 8166
Excerpt: as §1

[5] = Escherichia coli, ATCC25922, E. coli ATCC 25922

- IC50 [1]: 5.15 mM
- melting point: 187 °C
Compound: COc1ccc([C@H]2[C@H](c3ccccc3)N[C@@]3(C(=O)Nc4ccccc43)[C@@]23NC(=O)NC3=O)cc1 (racemic) [4d]
- MFC (C. albicans ATCC 90028): > 1500 µg/mL
- MBC (P. aeruginosa ATCC 27950): 188 µg/mL (≈ 413 µM)
- MFC (C. kreusei ATCC 6258): 93.8 µg/mL (≈ 206 µM)
- MBC (M. luteus NCIMB 8166): 750 µg/mL (≈ 1650 µM)
- MBC (E. coli ATCC 25922; E. coli ATCC 25922): 375 µg/mL (≈ 825 µM)
- MBC (E. coli ATCC 25922; [5]): 188 to 374 µg/mL (≈ 413 to 823 µM)
- MBC (S. aureus ATCC 25923): 93.8 µg/mL (≈ 206 µM)

- IC50 [1]: 8.96 mM
- melting point: 195 °C
Compound: O=C1NC(=O)[C@]2(N1)[C@@H](c1ccc(Cl)cc1)[C@H](c1ccccc1)N[C@@]21C(=O)N(Cc2ccccc2)c2ccccc21 (racemic) [4f]
- MFC (C. albicans ATCC 90028): 93.8 µg/mL (≈ 171 µM)
- MBC (P. aeruginosa ATCC 27950): 375 µg/mL (≈ 683 µM)
- MFC (C. kreusei ATCC 6258): 93.8 µg/mL (≈ 171 µM)
- MBC (M. luteus NCIMB 8166): 750 µg/mL (≈ 1370 µM)
- MBC (E. coli ATCC 25922; E. coli ATCC 25922): 375 µg/mL (≈ 683 µM)
- MBC (E. coli ATCC 25922; [5]): 188 to 374 µg/mL (≈ 342 to 681 µM)
- MBC (S. aureus ATCC 25923): 188 µg/mL (≈ 342 µM)

- IC50 [1]: 3.09 mM
- melting point: 198 °C
- MIC [4]: 93.8 µg/mL (≈ 174 µM)
Compound: O=C1NC(=O)[C@]2(N1)[C@@H](c1ccc(Cl)cc1)[C@H](c1ccccc1)N[C@@]21C(=O)Nc2ccc(Br)cc21 (racemic) [4h]
- MFC (C. albicans ATCC 90028): > 1500 µg/mL
- MBC (P. aeruginosa ATCC 27950): 188 µg/mL (≈ 349 µM)
- MFC (C. kreusei ATCC 6258): > 1500 µg/mL
- MBC/MIC ratio (M. luteus NCIMB 8166): 8
- MBC (M. luteus NCIMB 8166): 188 µg/mL (≈ 349 µM)
- MBC (E. coli ATCC 25922; E. coli ATCC 25922): 375 µg/mL (≈ 697 µM)
- MBC (E. coli ATCC 25922; [5]): 188 to 374 µg/mL (≈ 349 to 695 µM)
- MBC (S. aureus ATCC 25923): 188 µg/mL (≈ 349 µM)

Further lines, the compound ahead of its results:

Compound: Cc1ccc([C@H]2[C@H](c3ccccc3)N[C@@]3(C(=O)Nc4ccc(Br)cc43)[C@@]23NC(=O)NC3=O)cc1 (racemic) [4b]
- MFC/MIC ratio (C. albicans ATCC 90028): ≤ 4
- MFC (C. albicans ATCC 90028): 188 µg/mL (≈ 362 µM)
- MBC (P. aeruginosa ATCC 27950): 93.8 µg/mL (≈ 181 µM)
- MFC/MIC ratio (C. kreusei ATCC 6258): ≤ 4
- MFC (C. kreusei ATCC 6258): 93.8 µg/mL (≈ 181 µM)
- MBC (M. luteus NCIMB 8166): 750 µg/mL (≈ 1450 µM)
- IC50 [1]: 5.66 mM
- melting point: 236 °C
- MBC (E. coli ATCC 25922; E. coli ATCC 25922): 375 µg/mL (≈ 725 µM)
- MBC (E. coli ATCC 25922; [5]): 188 to 374 µg/mL (≈ 362 to 723 µM)
- MBC/MIC ratio (S. aureus ATCC 25923; S. aureus, ≤ 4 bactericidal, >4 bacteriostatic): 16
- MBC (S. aureus ATCC 25923): 750 µg/mL (≈ 1450 µM)
- MIC [2]: 46.9 µg/mL (≈ 90.6 µM)

Compound: COc1ccc([C@H]2[C@H](c3ccccc3)N[C@@]3(C(=O)Nc4ccc(Cl)cc43)[C@@]23NC(=O)NC3=O)cc1 (racemic) [4c]
- MFC (C. albicans ATCC 90028): 46.9 µg/mL (≈ 95.9 µM)
- MIC [3]: 188 µg/mL (≈ 383 µM)
- MBC (P. aeruginosa ATCC 27950): 93.8 µg/mL (≈ 192 µM)
- MFC (C. kreusei ATCC 6258): > 1500 µg/mL
- MBC/MIC ratio (M. luteus NCIMB 8166): 8
- MBC (M. luteus NCIMB 8166): 750 µg/mL (≈ 1530 µM)
- IC50 [1]: 4.42 mM
- melting point: 211 °C
- MBC (E. coli ATCC 25922; [5]): 188 µg/mL (≈ 383 µM)
- MBC (S. aureus ATCC 25923): 188 µg/mL (≈ 383 µM)
- MIC [4]: 93.8 µg/mL (≈ 192 µM)

Compound: O=C1NC(=O)[C@]2(N1)[C@@H](c1ccc(Br)cc1)[C@H](c1ccccc1)N[C@@]21C(=O)N(Cc2ccccc2)c2ccccc21 (racemic) [4g]
- MFC/MIC ratio (C. albicans ATCC 90028): ≤ 4
- MFC (C. albicans ATCC 90028): 93.8 µg/mL (≈ 158 µM)
- MBC (P. aeruginosa ATCC 27950): 188 µg/mL (≈ 316 µM)
- MFC/MIC ratio (C. kreusei ATCC 6258): ≤ 4
- MFC (C. kreusei ATCC 6258): 93.8 µg/mL (≈ 158 µM)
- MBC/MIC ratio (M. luteus NCIMB 8166): 8
- MBC (M. luteus NCIMB 8166): > 1500 µg/mL
- IC50 [1]: 8.36 mM
- melting point: 223 °C
- MBC (E. coli ATCC 25922; E. coli ATCC 25922): 375 µg/mL (≈ 632 µM)
- MBC (E. coli ATCC 25922; [5]): 188 to 374 µg/mL (≈ 316 to 630 µM)
- MBC (S. aureus ATCC 25923): 46.9 µg/mL (≈ 79 µM)
- MIC [4]: 93.8 µg/mL (≈ 158 µM)
- MIC [2]: 23.3 µg/mL (≈ 39.3 µM)
